In PMC6934184, “Selective DNA-PKcs inhibition extends the therapeutic index of localized radiotherapy and chemotherapy” (The Journal of Clinical Investigation, 2019):

Test system: Huh7 cells
Assay: Huh7 cells with single doxorubicin-loaded DC M1 bead (SRB cell density, γH2AX Western)
Format: cell-based, Human
Method: Exponentially growing HAP-1 DNA-PK proficient or deficient cells were seeded into 6-well plates and allowed to re-attach. Cells were then incubated with vehicle (DMSO) or NU5455 (5 µM) 1 hour prior to irradiation and for a further 24 hours post-irradiation. Cells were then washed in PBS and incubated in drug-free medium to allow for colony formation.
To quantify the number of proliferating versus confluent cells, cells were pulsed with 5-ethynyl-2’-deoxyuridine (EdU), and labeled using the Click-iT Plus EdU Alexa Fluor 647 Flow Cytometry Assay Kit together with FxCycle Violet Stain to label DNA (both Thermo Fisher) following the manufacturer’s instructions. Samples of cells taken from tho se used in the clonogenic assay were used to confirm the percentage of cells in each cell cycle phase.
Samples were acquired on a Symphony A5 flow cytometer (Becton Dickinson, UK).
Cell cycle phase status was also confirmed by microscopy, using cells grown on coverslips i n 6-well plates. […] Coverslips were mounted using Prolong Glass with NucBlue (ThermoFisher) and images were acquired on the Leica TCS SP8 confocal fluorescence […]
Treated cells were fixed with 10% (w/v) trichloroacetic acid (Fisher) at 4°C overnight. Cells were stained with sulphorhodamine B (SRB, 0.4% (w/v) in water), and cell density quantified […]
by determining the absorbance at 570 nm of SRB stain dissolved in Tris base (10 mM, pH 10.5) using a spectrophotometer (BMG Labtech). […]
Blood samples were centrifuged at 6700 x g for 3 minutes, the plasma removed and stored at -20°C prior to analysis for drug by HPLC with fluorescence detection. […]
Samples (20 µl) were applied to a 10 x 0.46 cm Genesis C18 4 µm column (Grace Vydac) fitted with an in-line filter. […] Analytes were detected by fluorescence at 390 nm following excitation at 242 nm. Plasma concentrations were determined using linear standard curves (0.01 µM – 10 µM, R2 > 0.98) generated by extracting compounds from […]
Readings were taken every 2 hours for the first 10 hours and then at 24 hour intervals. […]

CN(C(=O)CN1CCOCC1)c1ccc2sc3c(-c4cccc5c(=O)cc(N6CC7CCC(C6)O7)oc45)cccc3c2c1 [NU5455]
inhibition of cell density, single agent (96 hours continuous, NU5455 1 μM or a single doxorubicin-loaded bead): ~ 20% | reduction of cell density, combination treatment (96 hours, NU5455 1 μM + single doxorubicin-loaded bead): 57.7% ± 2.1% | γH2AX protein levels (DNA damage induced by released doxorubicin) (NU5455 1 μM + doxorubicin-loaded bead, 24–96 hours, Western blotting): augment and sustain the DNA damage
